Measured values published in patent US10870618B2, “Histone deacetylase inhibitors and uses thereof” (MUSC FOUNDATION FOR RESEARCH DEVELOPMENT, priority 2016, dated 2020).
Read-outs that look alike come from different tables or passages of the source.

Experiments:
HDAC3 = HDAC3 (Homo sapiens (Human), UniProt O15379); test: Recombinant HDAC inhibition assay (HDAC3); type: biochemical
Method: Recombinant HDACs 1, 2, and 3 (BPS Biosciences) were diluted to a concentration of 1 nM in HDAC buffer. 10 uL of this solution was added in 96-well format to black U-bottom plates. 10 uL of serially diluted inhibitor was added and a 2 hour pre incubation occurred at room temperature. 50 μM (final) of Acetylated Lysine-Aminomethyl coumarin-BOC in HDAC buffer solution was added and a second 2 hour incubation occurred at room temperature. 5 mg/mL trypsin, 1 μM trichostatin A solution in HDAC buffer was added to quench the reaction. […] Data were normalized to control wells containing no inhibitor. IC50's were determined using GraphPad Prism's built in “log(inhibitor) vs. normalized response—Variable slope” function.

HEK293 Lysate = test: Hek293 lysate inhibition assay; type: biochemical
Method: Hek293 cells were purchased from ATCC and cultured in Dulbecco's modified eagle's medium with glutamax and 10% (v/v) FBS. Cells were plated in 75 cm^2 flasks and incubated at 37° C. and 5% CO2 until −80% confluent. Cells were harvested, washed, and pelleted, lysed before protein concentration was determined using a Tecan M200 spectrophotometer in a BCA assay, and finally stored at −80° C. Upon need, lysate was thawed and diluted to 1 mg/mL of protein concentration with HDAC Buffer. […] The solution was buffered to a pH of 8 and addition of 1 mg/mL BSA was added. 10 μL of this diluted lysate solution was added in 96-well format black U-bottom plates. Serially diluted inhibitor solution was added and a 2 hour pre incubation occurred at 37° C. 50 μM (final) of Acetylated Lysine-Aminomethyl coumarin-BOC in HDAC buffer solution was added and a second 2 hour incubation occurred at 37° C. 5 mg/mL trypsin, 1 μM trichostatin A solution in HDAC buffer was added to quench the reaction. […] Data were normalized to control wells containing no inhibitor. IC50's were determined using GraphPad Prism's built in “log(inhibitor) vs. normalized response—Variable slope” function.

[1] = system: TA97a and TA100 S. typhimurium; test: mini-Ames test; details: 96-well format
Text: Test were ran with TA97a (shown) and TA100 S. typhimurium.
Tests were run with TA97a (shown) and TA100 S. typhimurium.

MV4-11 cells = test: Western blot analysis of MV4-11 cells; type: cell-based
Method: MV4-11 cells were cultured as described above. Cells were plated at 500 k cells/mL×3 mLs in clear, flat bottom 6 well plates. Cells were pre-incubated for 24 hours before addition of inhibitor at various concentrations. […] Cell pellets were lysed with RIPA buffer. RIPA buffer is comprised of 50 mM Tris Base, 150 mM NaCl, 5 mM EDTA, 0.1% (v/v) SDS, 0.5% (v/v) Sodium Deoxycholate, and 1% (v/v) Triton-x-100. After lysing, the suspension is ultra-sonicated and centrifuged at 15000 RPM for 15 minute at 4° C. 80 μL of supernatant was mixed with 40 μL of 15:85 (v/v) 3-mercaptoethanol:LDS solution. The mixture was heated at 90° C. for 15 minutes and stored for loading at −20° C. Prior to loading, the solution was flash thawed at 90° C. Lysates were run on Invitrogen NuPAGE 4-12% Bis-Tris 15 well gels at 170V for approximately 60 minutes in MES buffer. Gels were transferred to […] and ran at 30V for 180 minutes. Primary antibodies, purchased from Santa Cruz Biotechnology, were added in 5% (w/v) milk or 5% (w/v) Bovine Serum Albumin fraction V. The antibody was incubated with cellulose overnight at 4° C. before addition of secondary antibody in 5% (w/v) milk or 5% (w/v) Bovine Serum Albumin. Images were read using a GE ImageQuant LAS 4000. Global lighting adjustments of resulting images were made using Adobe Photoshop CC. Quantification was performed using Image Studio Lite 4.0.

[2] = reported, cited from earlier work
[3] = in human, reported; cited from earlier work
HDAC2 = HDAC2 (Homo sapiens (Human), UniProt Q92769); test: Recombinant HDAC inhibition assay (HDAC2); type: biochemical
Method: (§1) Recombinant HDACs 1, 2, and 3 (BPS Biosciences) were diluted to a concentration of 1 nM in HDAC buffer. 10 uL of this solution was added in 96-well format to black U-bottom plates. 10 uL of serially diluted inhibitor was added and a 2 hour pre incubation occurred at room temperature. 50 μM (final) of Acetylated Lysine-Aminomethyl coumarin-BOC in HDAC buffer solution was added and a second 2 hour incubation occurred at room temperature. 5 mg/mL trypsin, 1 μM trichostatin A solution in HDAC buffer was added to quench the reaction. Fluorescence was read at 360 (ex.)/460 (em.) using a Tecan M200 Pro. Data were normalized to control wells containing no inhibitor. IC50's were determined using GraphPad Prism's built in “log(inhibitor) vs. normalized response—Variable slope” function.

HDAC1 = HDAC1 (Homo sapiens (Human), UniProt Q13547); test: Recombinant HDAC inhibition assay (HDAC1); type: biochemical
Method: as §1

Raw264.7 = test: HMGB-1 secretion by macrophages; type: cell-based; details: LPS plus ATP challenge
[4] = system: Raw246.7 macrophage cells; test: NO production in activated macrophages; type: cell-based; details: 100 nM, LPS and LPS+ATP
Text: Hypo-acetylation of histone H3 and H4 were also reversed with HDAC inhibitor treatments (yellow dash box). d.

Sequence of HDAC2 (Q92769 whole entry): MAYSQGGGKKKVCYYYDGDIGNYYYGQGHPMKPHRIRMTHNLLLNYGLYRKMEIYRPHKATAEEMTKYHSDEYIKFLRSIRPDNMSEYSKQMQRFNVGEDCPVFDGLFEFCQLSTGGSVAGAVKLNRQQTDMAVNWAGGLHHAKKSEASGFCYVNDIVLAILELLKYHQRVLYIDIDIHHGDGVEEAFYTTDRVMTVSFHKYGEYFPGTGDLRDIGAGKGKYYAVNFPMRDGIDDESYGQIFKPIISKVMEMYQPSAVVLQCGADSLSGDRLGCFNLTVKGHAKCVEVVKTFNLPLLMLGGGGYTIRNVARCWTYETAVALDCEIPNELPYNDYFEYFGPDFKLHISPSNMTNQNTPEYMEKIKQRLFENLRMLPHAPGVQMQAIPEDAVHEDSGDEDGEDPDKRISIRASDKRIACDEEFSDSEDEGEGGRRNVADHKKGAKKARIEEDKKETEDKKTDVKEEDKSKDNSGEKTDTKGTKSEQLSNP
Sequence of HDAC1 (Q13547 whole entry): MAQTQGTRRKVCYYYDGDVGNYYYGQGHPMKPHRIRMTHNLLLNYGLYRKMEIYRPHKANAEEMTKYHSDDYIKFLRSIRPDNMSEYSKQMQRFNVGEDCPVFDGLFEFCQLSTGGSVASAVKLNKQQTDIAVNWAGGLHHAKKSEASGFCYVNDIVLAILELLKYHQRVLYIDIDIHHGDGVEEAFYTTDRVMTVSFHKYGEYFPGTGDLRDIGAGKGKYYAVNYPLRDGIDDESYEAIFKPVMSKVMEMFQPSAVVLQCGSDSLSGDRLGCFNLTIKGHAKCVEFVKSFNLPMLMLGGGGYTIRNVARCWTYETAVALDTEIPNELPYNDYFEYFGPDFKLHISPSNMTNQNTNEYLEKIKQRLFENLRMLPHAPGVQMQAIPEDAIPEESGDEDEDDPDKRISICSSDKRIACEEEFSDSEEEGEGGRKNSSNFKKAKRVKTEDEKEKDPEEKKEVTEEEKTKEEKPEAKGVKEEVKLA
Sequence of HDAC3 (O15379 whole entry): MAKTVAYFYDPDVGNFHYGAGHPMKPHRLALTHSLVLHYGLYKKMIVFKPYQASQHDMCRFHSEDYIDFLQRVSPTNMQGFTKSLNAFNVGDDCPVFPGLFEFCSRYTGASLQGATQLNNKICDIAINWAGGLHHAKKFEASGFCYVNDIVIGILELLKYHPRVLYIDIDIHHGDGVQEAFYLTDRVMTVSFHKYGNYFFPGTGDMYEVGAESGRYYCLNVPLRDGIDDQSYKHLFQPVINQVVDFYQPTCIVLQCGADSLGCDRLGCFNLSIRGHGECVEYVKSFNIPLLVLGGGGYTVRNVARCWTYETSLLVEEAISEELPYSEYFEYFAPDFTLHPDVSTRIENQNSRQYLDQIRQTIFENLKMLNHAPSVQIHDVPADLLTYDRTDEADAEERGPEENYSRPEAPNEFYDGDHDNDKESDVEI
Sequence of HDAC3 (Q9Y618 395-489 partner): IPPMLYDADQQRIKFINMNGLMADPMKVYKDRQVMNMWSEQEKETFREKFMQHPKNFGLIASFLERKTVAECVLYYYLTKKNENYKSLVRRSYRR

Compound | IC50 (HDAC3) [nM] | IC50 (HEK293 Lysate) [nM] | other results
O=C(NCc1ccc(C(=O)NNCC2CC2)cc1)c1ccccc1 [Compound 2g, N-(4-(2-(cyclopropylmethyl)hydrazine-1-carbonyl)benzyl)benzamide] | 39.93 ± 0.25 | 1620 ± 196 | 
CCCCNNC(=O)c1ccc(OC)cc1 [Compound 1a, N′-butyl-4-methoxybenzohydrazide] | 157 ± 28.6 | 727 ± 10.8 | 
O=C(NCc1ccc(C(=O)NNCC2CCC2)cc1)c1ccccc1 [Compound 2m, N-(4-(2-(cyclobutylmethyl)hydrazine-1-carbonyl)benzyl)benzamide] | 84.4 ± 7.22 | 1880 ± 212 | 
Cc1[nH]c2ccccc2c1CCNCc1ccc(/C=C/C(=O)NO)cc1 [panobinostat] |  |  | mutagenicity (mini-Ames) [1]: Ames positive; increase in Hsp70 level (MV4-11 cells): observed; t1/2 ([2]; in rodent): 2.9 h; Cmax [2]: 116 ng/mL; t1/2 [3]: 16 h
CCCCNNC(=O)c1cccc2ccccc12 [Compound 1j, N′-butyl-1-naphthohydrazide] | > 10000 | > 10000 | 
CCCCCCCCCCNNC(=O)c1ccc(CNC(=O)c2ccccc2)cc1 [Compound 2k, N-(4-(2-decylhydrazine-1-carbonyl)benzyl)benzamide] | > 10000 | > 10000 | 
CCCCCNNC(=O)c1ccc(CNC(=O)/C=C/c2ccccc2)cc1 [Compound 3d, N-(4-(2-pentylhydrazine-1-carbonyl)benzyl)cinnamamide] | 32.5 ± 1.15 | 691 ± 54.7 | IC50 (HDAC2): 99.6 ± 17.4 nM; IC50 (HDAC1): 47.4 ± 16.8 nM
O=C(CCCCCCC(=O)Nc1ccccc1)NO [vorinostat, suberanilohydroxamic acid, reference compound] |  |  | HMGB-1 secretion (Raw264.7): attenuated; NO production, acute treatment [4]: only inhibited LPS induced NO production but not ATP driven ones; increase in Hsp70 level (MV4-11 cells): observed; t1/2 [2]: 0.2 h
CC(C)NNC(=O)c1ccc(CNC(=O)c2ccccc2)cc1 [Compound 2b, N-(4-(2-isopropylhydrazine-1-carbonyl)benzyl)benzamide] | > 10000 | > 10000 | 
CCCNNC(=O)c1ccc(CNC(=O)c2ccccc2)cc1 [Compound 2d, N-(4-(2-propylhydrazine-1-carbonyl)benzyl)benzamide] |  |  | IC50 (HDAC2): 77.6 ± 9.52 nM; IC50 (HDAC1): 13.2 ± 2.01 nM
CCCCCCCCNNC(=O)c1ccc(CNC(=O)c2ccccc2)cc1 [Compound 2i, N-(4-(2-octylhydrazine-1-carbonyl)benzyl)benzamide] | 1090 ± 334 | > 10000 | 
C/C=C/CNNC(=O)c1ccc(CNC(=O)c2ccccc2)cc1 [Compound 2a, (E)-N-(4-(2-(but-2-en-1-yl)hydrazine-1-carbonyl)benzyl)benzamide] | 1530 ± 228 | > 10000 | HMGB-1 secretion (Raw264.7): attenuated
CCNNC(=O)c1ccc(CNC(=O)c2ccccc2)cc1 [Compound 2l, N-(4-(2-ethylhydrazine-1-carbonyl)benzyl)benzamide] | 187.3 ± 0.6 | 427 ± 110 | 
CCCCNNC(=O)c1ccc(CNC(=O)/C=C/c2ccccc2)cc1 [Compound 3c, N-(4-(2-butylhydrazine-1-carbonyl)benzyl)cinnamamide] |  |  | IC50 (HDAC2): 70 ± 26.4 nM; IC50 (HDAC1): 60.2 ± 21 nM
CCCCCCCNNC(=O)c1ccc(CNC(=O)c2ccccc2)cc1 [Compound 2h, N-(4-(2-heptylhydrazine-1-carbonyl)benzyl)benzamide] | 569 ± 84.9 | 2160 ± 896 | 
CCCCNNC(=O)CCc1ccccc1 [Compound 1h, N′-butyl-3-phenylpropanehydrazide] | 1890 ± 227 | > 10000 | 

Compound | IC50 (HDAC3) [nM] | IC50 (HEK293 Lysate) [nM] | other results
CCCCNNC(=O)c1ccc(CNC(=O)c2ccccc2)cc1 [Compound 1l, N-(4-(2-butylhydrazine-1-carbonyl)benzyl)benzamide] |  |  | IC50 (HDAC2): 65.2 ± 10.4 nM; IC50 (HDAC1): 18.9 ± 2.74 nM
CCCCCNNC(=O)c1ccc(CNC(=O)c2ccccc2)cc1 [Compound 2e, N-(4-(2-pentylhydrazine-1-carbonyl)benzyl)benzamide] |  |  | IC50 (HDAC2): 43.6 ± 33.2 nM; IC50 (HDAC1): 20.2 ± 5.04 nM
CCCCNNC(=O)c1cc2ccccc2o1 [Compound 1b, N′-butylbenzofuran-2-carbohydrazide] | 1360 ± 197 | 1690 ± 38 | 
CC/C=N/NC(=O)c1ccc(CNC(=O)c2ccccc2)cc1 [Compound 2c, (E)-N-(4-(2-propylidenehydrazine-1-carbonyl)benzyl)benzamide] | > 10000 | > 10000 | 
CCCCNNC(=O)c1cccs1 [Compound 1f, N′-butylthiophene-2-carbohydrazide] | 904 ± 154 | 3460 ± 669 | 
CCCCNNC(=O)c1ccco1 [Compound 1g, N′-butylfuran-2-carbohydrazide] | 5000 ± 372 | > 10000 | 
CCCCCCNNC(=O)c1ccc(CNC(=O)c2ccccc2)cc1 [Compound 2j, N-(4-(2-hexylhydrazine-1-carbonyl)benzyl)benzamide] | 184 ± 74.5 | 550 ± 134 | 
CCCCNNC(=O)c1ccc(Oc2ccccc2)cc1 [Compound 1c, N′-butyl-4-phenoxybenzohydrazide] | 312 ± 42.8 | 1690 ± 298 | 
Nc1ccc2cc3ccccc3cc2c1 [2-aminoanthracene] |  |  | mutagenicity (mini-Ames) [1]: Ames positive
CCNNC(=O)c1ccc(CNC(=O)/C=C/c2ccccc2)cc1 [Compound 3a, N-(4-(2-ethylhydrazine-1-carbonyl)benzyl)cinnamamide] | 19.7 ± 1.41 | 171 ± 34.2 | IC50 (HDAC2): 76.6 ± 9.74 nM; IC50 (HDAC1): 29.5 ± 10.7 nM
CCCCNNC(=O)c1cccnc1 [Compound 1d, N′-butylnicotinohydrazide] | 1550 ± 430 | 4680 ± 909 | 
CCCCCCNNC(=O)c1ccc(CNC(=O)/C=C/c2ccccc2)cc1 [Compound 3e, N-(4-(2-hexylhydrazine-1-carbonyl)benzyl)cinnamamide] | 150 ± 81.6 | 1720 ± 139 | IC50 (HDAC2): 139 ± 29.9 nM; IC50 (HDAC1): 81.4 ± 12 nM
CCCCNNC(=O)/C=C/c1ccccc1 [Compound 1i, N′-butylcinnamohydrazide] | 294 ± 32.6 | 1440 ± 86.1 | 
CCCCc1nc2cc(/C=C/C(=O)NO)ccc2n1CCN(CC)CC [Pracinostat] |  |  | AUCinf [2]: 1,841 ng·h/mL; Cmax [2]: 2,632 ng/mL; t1/2 [2]: 2.4 h
O=C(NCc1ccc(C(=O)NNCCC(F)(F)F)cc1)c1ccccc1 [Compound 2f, N-(4-(2-(3,3,3-trifluoropropyl)hydrazine-1-carbonyl)benzyl)benzamide] | 69.1 ± 0.52 | 1230 ± 136 | 
